# Test results: US12281122B1, “PI3K inhibitors” (Cogent Biosciences, Inc., priority 2023, dated 2025)
# pIC50: −log10 of the molar value.
# Tests used:
# [1] = test system: SKBR3 (PI3Kα-Wild Type) cell line; experiment: HTRF phospho-AKT(S473) cell assay in SKBR3 cells; type: cell-based, human; details: Homo sapiens, SK-BR-3; HTRF phospho-AKT(S473), SKBR3 (PI3Kα-Wild Type) cells, 2 hours compound incubation, PDGF-BB stimulated
# How it was run: (§1)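 pAKT(S473) in lysates read by HTRF after a 2 h, 37 °C compound exposure (12-point 1:3 series, max 0.5% DMSO). SKBR3 (wild type, top 10 μM) received 70 ng/ml PDGF-BB during the final 15 min; T47D (H1047R, top 5 μM) was unstimulated. IC50 values derived from the dose-response.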
# [2] = test system: T47D (PI3Kα-H1047R) cell line; experiment: HTRF phospho-AKT(S473) cell assay in T47D cells; type: cell-based, human; details: Homo sapiens; HTRF phospho-AKT(S473), T47D (PI3Kα-H1047R) cells, 2 hours compound incubation
# How it was run: as §1
SMILES,pIC50 [1],pIC50 [2]
"Cc1cc([C@@H](C)Nc2ccc(Cl)nc2C(=O)NS(C)(=O)=O)c2nc(N3CCC(c4ccc[nH]c4=O)CC3)n(C)c(=O)c2c1 [Compound 706, (R)-6-chloro-3-((1-(3,6-dimethyl-4-oxo-2-(4-(2-oxo-1,2-dihydropyridin-3-yl)piperidin-1-yl)-3,4-dihydroquinazolin-8-yl)ethyl)amino)-N-(methylsulfonyl) picolinamide]",≤ 5.30,6.00 to 6.30
"Cc1cc([C@@H](C)Nc2ccc(Cl)nc2C(=O)NS(C)(=O)=O)c2nc(N3CC[C@@H](Oc4cncnc4)C3)n(C)c(=O)c2c1 [Compound 707, 6-chloro-3-(((R)-1-(3,6-dimethyl-4-oxo-2-((R)-3-(pyrimidin-5-yloxy)pyrrolidin-1-yl)-3,4-dihydroquinazolin-8-yl)ethyl)amino)-N-(methylsulfonyl) picolinamide]",5.30 to 6.00,6.30 to 6.60
"Cc1cc([C@@H](C)Nc2ccc(Cl)nc2C(=O)NS(C)(=O)=O)c2nc(N3CC[C@@H](Oc4ccnnc4)C3)n(C)c(=O)c2c1 [Compound 710, 6-chloro-3-(((R)-1-(3,6-dimethyl-4-oxo-2-((R)-3-(pyridazin-4-yloxy)pyrrolidin-1-yl)-3,4-dihydroquinazolin-8-yl)ethyl)amino)-N-(methylsulfonyl) picolinamide]",≤ 5.30,5.30 to 6.00
"Cc1cc([C@@H](C)Nc2ccc(Cl)nc2C(=O)NS(C)(=O)=O)c2nc(N3CCn4ncc(F)c4C3)n(C)c(=O)c2c1 [Compound 711, (R)-6-chloro-3-((1-(2-(3-fluoro-6,7-dihydropyrazolo[1,5-a]pyrazin-5(4H)-yl)-3,6-dimethyl-4-oxo-3,4-dihydroquinazolin-8-yl)ethyl)amino)-N-(methylsulfonyl) picolinamide]",5.30 to 6.00,6.30 to 6.60
"Cc1cc([C@@H](C)Nc2ccc(Cl)nc2C(=O)NS(C)(=O)=O)c2nc(N3CC[C@@H](Oc4ccc(F)cn4)C3)n(C)c(=O)c2c1 [Compound 713, 6-chloro-3-(((R)-1-(2-((R)-3-((5-fluoropyridin-2-yl)oxy)pyrrolidin-1-yl)-3,6-dimethyl-4-oxo-3,4-dihydroquinazolin-8-yl)ethyl)amino)-N-(methylsulfonyl) picolinamide]",5.30 to 6.00,6.30 to 6.60
"Cc1cc([C@@H](C)Nc2ccc(Cl)nc2C(=O)NS(C)(=O)=O)c2nc(N3CCC(c4cc(C)[nH]n4)CC3)n(C)c(=O)c2c1 [Compound 715, (R)-6-chloro-3-((1-(3,6-dimethyl-2-(4-(5-methyl-1H-pyrazol-3-yl)piperidin-1-yl)-4-oxo-3,4-dihydroquinazolin-8-yl)ethyl)amino)-N-(methylsulfonyl) picolinamide]",5.30 to 6.00,> 6.60
"Cc1cc([C@@H](C)Nc2ccc(Cl)nc2C(=O)NS(C)(=O)=O)c2nc(N3CCC(n4cc(C)nn4)CC3)n(C)c(=O)c2c1 [Compound 716, (R)-6-chloro-3-((1-(3,6-dimethyl-2-(4-(4-methyl-1H-1,2,3-triazol-1-yl)piperidin-1-yl)-4-oxo-3,4-dihydroquinazolin-8-yl)ethyl)amino)-N-(methylsulfonyl) picolinamide]",5.30 to 6.00,> 6.60
"Cc1cc([C@@H](C)Nc2ccc(Cl)nc2C(=O)NS(C)(=O)=O)c2nc(N3CCC(c4ncnn4C(C)C)CC3)n(C)c(=O)c2c1 [Compound 719, (R)-6-chloro-3-((1-(2-(4-(1-isopropyl-1H-1,2,4-triazol-5-yl)piperidin-1-yl)-3,6-dimethyl-4-oxo-3,4-dihydroquinazolin-8-yl)ethyl)amino)-N-(methylsulfonyl) picolinamide]",≤ 5.30,6.30 to 6.60
"COc1ncc(F)c(N2CCN(c3nc4c([C@@H](C)Nc5ccc(Cl)nc5C(=O)NS(C)(=O)=O)cc(C)cc4c(=O)n3C)CC2)n1 [Compound 720, (R)-6-chloro-3-((1-(2-(4-(5-fluoro-2-methoxypyrimidin-4-yl)piperazin-1-yl)-3,6-dimethyl-4-oxo-3,4-dihydroquinazolin-8-yl)ethyl)amino)-N-(methylsulfonyl) picolinamide]",5.30 to 6.00,> 6.60
"Cc1cc([C@@H](C)Nc2ccc(Cl)nc2C(=O)NS(C)(=O)=O)c2nc(N3CCC(c4nc(C)n(C(F)F)n4)CC3)n(C)c(=O)c2c1 [Compound 723, (R)-6-chloro-3-((1-(2-(4-(1-(difluoromethyl)-5-methyl-1H-1,2,4-triazol-3-yl)piperidin-1-yl)-3,6-dimethyl-4-oxo-3,4-dihydroquinazolin-8-yl)ethyl)amino)-N-(methylsulfonyl) picolinamide]",5.30 to 6.00,6.30 to 6.60
"Cc1cc([C@@H](C)Nc2ccc(Cl)nc2C(=O)NS(C)(=O)=O)c2nc(N3CCC(c4nc(C)nn4C(F)F)CC3)n(C)c(=O)c2c1 [Compound 724, (R)-6-chloro-3-((1-(2-(4-(1-(difluoromethyl)-3-methyl-1H-1,2,4-triazol-5-yl)piperidin-1-yl)-3,6-dimethyl-4-oxo-3,4-dihydroquinazolin-8-yl)ethyl)amino)-N-(methylsulfonyl) picolinamide]",5.30 to 6.00,6.30 to 6.60
"Cc1cc([C@@H](C)Nc2ccc(Cl)nc2C(=O)NS(C)(=O)=O)c2nc(N3CCC(c4nnc(C)n4C(F)F)CC3)n(C)c(=O)c2c1 [Compound 725, (R)-6-chloro-3-((1-(2-(4-(4-(difluoromethyl)-5-methyl-4H-1,2,4-triazol-3-yl)piperidin-1-yl)-3,6-dimethyl-4-oxo-3,4-dihydroquinazolin-8-yl)ethyl)amino)-N-(methylsulfonyl) picolinamide]",5.30 to 6.00,6.30 to 6.60
"Cc1cc([C@@H](C)Nc2ccc(Cl)nc2C(=O)NS(C)(=O)=O)c2nc(N3C[C@@H]4C[C@H]3CN4c3nccnc3C)n(C)c(=O)c2c1 [Compound 726, 6-chloro-3-(((R)-1-(3,6-dimethyl-2-((1S,4S)-5-(3-methylpyrazin-2-yl)-2,5-diazabicyclo[2.2.1]heptan-2-yl)-4-oxo-3,4-dihydroquinazolin-8-yl)ethyl)amino)-N-(methylsulfonyl) picolinamide]",5.30 to 6.00,6.30 to 6.60

# Continued, values first:
pIC50 [1],pIC50 [2],SMILES
≤ 5.30,6.30 to 6.60,"Cc1cc([C@@H](C)Nc2ccc(Cl)nc2C(=O)NS(C)(=O)=O)c2nc(N3CCC4(CCCN(c5ccn(C)n5)C4)C3)n(C)c(=O)c2c1 (stereo partly drawn) [Compound 708, 6-chloro-3-(((1R)-1-(3,6-dimethyl-2-(7-(1-methyl-1H-pyrazol-3-yl)-2,7-diazaspiro[4.5]decan-2-yl)-4-oxo-3,4-dihydroquinazolin-8-yl)ethyl)amino)-N-(methylsulfonyl) picolinamide]"
≤ 5.30,6.30 to 6.60,"Cc1cc([C@@H](C)Nc2ccc(Cl)nc2C(=O)NS(C)(=O)=O)c2nc(N3Cc4ccc(-c5ccnc(C)c5)cc4C3)n(C)c(=O)c2c1 [Compound 709, (R)-6-chloro-3-((1-(3,6-dimethyl-2-(5-(2-methylpyridin-4-yl)isoindolin-2-yl)-4-oxo-3,4-dihydroquinazolin-8-yl)ethyl)amino)-N-(methylsulfonyl) picolinamide]"
5.30 to 6.00,> 6.60,"Cc1cc([C@@H](C)Nc2ccc(Cl)nc2C(=O)NS(C)(=O)=O)c2nc(N3CCC(n4ncc(F)c4C)CC3)n(C)c(=O)c2c1 [Compound 712, (R)-6-chloro-3-((1-(2-(4-(4-fluoro-5-methyl-1H-pyrazol-1-yl)piperidin-1-yl)-3,6-dimethyl-4-oxo-3,4-dihydroquinazolin-8-yl)ethyl)amino)-N-(methylsulfonyl) picolinamide]"
5.30 to 6.00,> 6.60,"Cc1cc([C@@H](C)Nc2ccc(Cl)nc2C(=O)NS(C)(=O)=O)c2nc(N3CCN(c4cnccn4)CC3)n(C)c(=O)c2c1 [Compound 714, (R)-6-chloro-3-((1-(3,6-dimethyl-4-oxo-2-(4-(pyrazin-2-yl)piperazin-1-yl)-3,4-dihydroquinazolin-8-yl)ethyl)amino)-N-(methylsulfonyl) picolinamide]"
≤ 5.30,6.30 to 6.60,"Cc1cc([C@@H](C)Nc2ccc(Cl)nc2C(=O)NS(C)(=O)=O)c2nc(N3CCC(c4n[nH]cc4Cl)CC3)n(C)c(=O)c2c1 [Compound 717, (R)-6-chloro-3-((1-(2-(4-(4-chloro-1H-pyrazol-3-yl)piperidin-1-yl)-3,6-dimethyl-4-oxo-3,4-dihydroquinazolin-8-yl)ethyl)amino)-N-(methylsulfonyl) picolinamide]"
≤ 5.30,6.30 to 6.60,"COc1cc(N2CCN(c3nc4c([C@@H](C)Nc5ccc(Cl)nc5C(=O)NS(C)(=O)=O)cc(C)cc4c(=O)n3C)CC2)nc(C)n1 [Compound 718, (R)-6-chloro-3-((1-(2-(4-(6-methoxy-2-methylpyrimidin-4-yl)piperazin-1-yl)-3,6-dimethyl-4-oxo-3,4-dihydroquinazolin-8-yl)ethyl)amino)-N-(methylsulfonyl) picolinamide]"
5.30 to 6.00,6.30 to 6.60,"COc1cc([C@H]2[C@@H]3CN(c4nc5c([C@@H](C)Nc6ccc(Cl)nc6C(=O)NS(C)(=O)=O)cc(C)cc5c(=O)n4C)C[C@@H]32)n[nH]1 [Compound 722, 6-chloro-3-(((R)-1-(2-((1R,5S,6R)-6-(5-methoxy-1H-pyrazol-3-yl)-3-azabicyclo[3.1.0]hexan-3-yl)-3,6-dimethyl-4-oxo-3,4-dihydroquinazolin-8-yl)ethyl)amino)-N-(methylsulfonyl) picolinamide]"
5.30 to 6.00,6.30 to 6.60,"Cc1cc([C@@H](C)Nc2ccc(Cl)nc2C(=O)NS(C)(=O)=O)c2nc(N3CCN(c4nc(C)ncc4Cl)CC3)n(C)c(=O)c2c1 [Compound 727, (R)-6-chloro-3-((1-(2-(4-(5-chloro-2-methylpyrimidin-4-yl)piperazin-1-yl)-3,6-dimethyl-4-oxo-3,4-dihydroquinazolin-8-yl)ethyl)amino)-N-(methylsulfonyl) picolinamide]"
